{"source": "patent EP1105728B1", "about": "“MODULATING MULTIPLE LINEAGE KINASE PROTEINS” (CEPHALON, INC., priority 1998, dated 2000)", "key": {"[1]": {"test_system": "dorsal root ganglion sensory neurons (DRG)", "assay": "Survival of chick embryonic dorsal root ganglion sensory neurons", "format": "cell-based", "procedure": "(§1) Paravertebral sympathetic ganglia (SG; embryonal day 12 (E12)), dorsal root ganglia (DRG;E9), and ciliary ganglia (CG;E8) were dissected from chick embryos at the indicated embryonic day as described in Lindsay, et al., Dev. Biol., 1985, 112, 319-328, which is incorporated herein by reference in its entirety. After trypsinization and dissociation, the nerve cell suspensions were plated onto polyomithine-laminin-coated culture dishes in Ham's F14 culture medium, supplemented with 10% horse serum. Immediately after plating, survival factors were added at the following concentrations: Nerve growth factor (NGF), 20 ng/ml; ciliary neutrophic factor (CNTF), 10 ng/ml. The cultures were maintained at 37° and 5% CO2 in a humidified environment.\n(§2) Neurons were plated in 35 mm culture dishes with grids (Nunc). […] Cell survival was confirmed by vital staining with trypan blue (not shown)."}, "JNK": {"test_system": "JNK", "assay": "JNK activity immunoprecipitated from THP-1 cells", "format": "cell-based", "details": "Homo sapiens, read-out: THP-1 Cells JNK % inh. 500 nM", "procedure": "Assays for JNK activity were performed after immunoprecipitating the JNK protein from an extract of lysed THP-1 cells. Pelleted THP-1 cells were lysed on ice for 15 min in 500 µl of Frac buffer (10 mM Tris-Hcl, pH 7.5,50 mM NaCl, 30 µM sodium pyrophosphate, 1 mg/ml BSA, 1% Triton-X-100). The extract was centrifuged for 10 min at 14K and 5 µl of JNK antibody (Santa Cruz) was added to the supernatant. The extract was rotated for 60 min at 4°C, 75 µl of washed protein A Sepharose (20% w/v in Frac) added and the extract rotated another 30 min to bind the antibody complex to the protein A Sepharose. The protein A Sepharose was washed twice with Frac buffer, once with 20 mM Hepes, pH 7.6, 20 mM MgCl2, 2 mM DTT, then incubated for 15 min at 30° C in 30 µl of kinase buffer (20 mM hepes, 20 mM MgCl2, 2 MM DTT, 1 µg recombinant c-jun, and 2 µM ATP-γ-^32P, 2 µCi. The reaction was terminated by the addition of 10 µl of 4X SDS gel loading buffer, heated for 3 min at 80° C, and the proteins were analyzed on a 10% SDS gel. The gel was dried, exposed to a Phosphorimager plate, and the radioactive bands were analyzed on a Phosphorimager."}, "[2]": {"test_system": "ciliary ganglion (CG) neurons", "assay": "Survival of chick embryonic ciliary ganglion neurons", "format": "cell-based", "procedure": "as §1, §2"}, "[3]": {"test_system": "sympathetic ganglion neurons (SG)", "assay": "Survival of chick embryonic sympathetic ganglion neurons", "format": "cell-based", "procedure": "as §1\nNeurons were plated in 35 mm culture dishes with grids (Nunc). Selected areas of each dish comprising together about 10% of the surface scanned for the presence of phase bright cells immediately after plating and again after 48 h to assess survival percentages. Cell survival was confirmed by vital staining with trypan blue (not shown)."}, "MKK4": {"test_system": "MKK4", "assay": "MPTP model: phosphorylated MKK4 in the substantia nigra (immunoblot, ELISA)", "format": "in vivo, mice", "details": "pretreatment; Compound III-3 1 mg/kg (Fig. 22c)", "procedure": "MPTP was administered at a dose (40 mg/kg) that produces loss of striatal dopaminergic terminals and cell bodies in the substantia nigra. Tyrosine hydroxylase was used as a marker for dopamenergic nerve terminals in the substantia nigra. […] Since Compound III-3 is a known inhibitor of MLK3, activation of a downstream substrate of MLK3 was measured in MPTP- treated mice. Levels of phosphorylated MKK4 were measured using a phospho-MKK4 specific antibody (New England Biolabs, Beverly, MA) that recognizes the monophosphorylated form of MKK4 by either immunoblot (Fig. 22b) or ELISA (Fig. 22c). MPTP administration elevated levels of phosphorylated MKK4 in the substantia nigra by up to 5 fold over control levels (Fig. 22b). Peak elevations occurred 4 hrs after administration ofMPTP and coincided with peak CNS levels of MPP^+."}, "lumbar motor neurons": {"test_system": "lumbar motor neurons", "assay": "Developmentally regulated motor neuronal death in the chick embryo", "format": "in vivo", "source_text": "The present example is described in detail in Glicksman, et al., J. Neurobiol., 1998, 35, 361-370, which is incorporated herein by reference in its entirety. On E6, a window in the shell of chick eggs (Spafas, Preston, CT) was made and either vehicle (5% Solutol ™ HS 15, polyethylene glycol 660 hydroxysterate; BASF Aktiengesellschaft, Ludwigshafen, Germany (in phosphate-buffered saline, pH 7.2)) or the specified dose of Compound III-3 in the vehicle was applied directly onto the vascularized chorioallantoic membrane-once daily from E6 to E9 as described in Oppenheim, et al., Science, 1991, 251, 1616-1617, which is incorporated herein by reference in its entirety). Embryos were sacrificed at E10 and their spinal cords were removed, fixed in Carnoy's solution (10% glacial acetic acid, 60% absolute ethanol, 30% chloroform), processed for serial paraffin sections, and stained with thionin. Every 20th section of lumbar segments 1-8 was counted according to previously described criteria (Clarke, et al., Methods In Cell Biology: Cell Death, 1995, Schwart & Osborne, Eds., Academic Press, New York, pp.277-321, which is incorporated herein by reference in its entirety)."}}, "data": [{"smiles": "CCSCc1ccc2c(c1)c1c3c(c4c5cc(CSCC)ccc5n5c4c1n2C1CC(O)(C(=O)OC)C5(C)O1)CNC3=O", "note": "(stereo not drawn) [III-3]", "values": [{"measurement": "concentration at which the survival effect reached a plateau", "setting": "[1]; 10% serum (Fig. 16)", "value": "around 1 µM"}, {"measurement": "DRG survival", "setting": "[1]; after four days", "value": 52, "unit": "%"}, {"measurement": "inhibition at 0.5 µM", "setting": "JNK", "value": 93, "unit": "%"}, {"measurement": "concentration at which the survival effect reached a plateau", "setting": "[2]; 10% serum (Fig. 16)", "value": "around 1 µM"}, {"measurement": "survival of CNTF-dependent ciliary ganglion (CG) neurons", "setting": "[2]; after 24 h, CNTF 10 ng/ml, 10% serum", "value": 76, "unit": "%"}, {"measurement": "CG survival", "setting": "[2]; after four days", "value": 58, "unit": "%"}, {"measurement": "concentration at which the survival effect reached a plateau", "setting": "[3]; 10% serum (Fig. 16)", "value": "around 1 µM"}, {"measurement": "SG neurons alive", "setting": "[3]; after 48 h, Compound III-3 1 µM, NGF 20 ng/ml, 10% serum", "value": 94, "unit": "%"}, {"measurement": "SG survival", "setting": "[3]; after four days", "value": 83, "unit": "%"}, {"measurement": "MPTP-mediated MKK4 phosphorylation", "setting": "MKK4", "value": "partially inhibited"}, {"measurement": "motor neurons rescued", "setting": "lumbar motor neurons; 1.2 and 1.8 µg/day onto the chorioallantoic membrane", "value": 25, "unit": "%"}, {"measurement": "motor neurons that would normally die rescued", "setting": "lumbar motor neurons; 2.3 and 7 µg/day onto the chorioallantoic membrane", "value": "Forty"}]}]}
